Peptide text beside a SMILES is read from it. * marks the point of attachment. βNA = c1ccc2cc(N*)ccc2c1
Assays:
K. oxytoca 13GNB–582 [1] = assay: MIC, broth micro-dilution; format: cell-based; conditions: Klebsiella oxytoca, read-out: MIC, Single Drug
Description: (§1) MICs for NCL259 and NCL265 (serial two-fold dilutions commencing at 256 µg/mL) were determined (in duplicate) in round bottom 96–well microtitre trays (Sarstedt 82.1582.001), using the broth micro-dilution method recommended by the Clinical and Laboratory Standards Institute (CLSI). We have shown previously that robenidine can chelate calcium ions from cation-adjusted Mueller-Hinton broth, which causes the loss of activity of robenidine. Therefore, LB broth was used in this study. Additionally, considering the low solubility of robenidine and its analogues in aqueous solutions, two-fold serial dilutions of stock solutions of these compounds were prepared in 100% DMSO [21]. The MIC for ampicillin against each isolate was determined for each test to serve as an internal quality control. The MICs of isolates were determined by visual reading and using an EnSpire Multimode Plate Reader 2300 at A600nm.
(§2) MICs of NCL259 or NCL265 in the presence of the efflux pump inhibitor, PAβN were determined using a checkerboard assay. […] Briefly, a two-fold serial dilution of each antimicrobial solution was prepared in its appropriate solvent (e.g., DMSO for robenidine analogues and Milli-Q water for PAβN), and 1 μL of each dilution was added from wells 12 to 3 (12.8–0.25 μg/mL for robenidine analogues, and 32–2 μg/mL for PAβN). Thereafter, 89 μL of LB broth was added to each well followed by the addition of 10 μL of bacterial suspension (1–5 × 10^6 CFU/mL) to each well. In this manner, the final concentration of DMSO in each well was 1%. The plate was subsequently incubated at 37 °C for 24 h. The resazurin assay was used for assessment of drug susceptibility of NCL259 and NCL265 (Supplementary Table S1–S6). The same method was also used to test the MICs of NCL259 or NCL265 in the presence of PMB against a range of Gram-negative reference strains (E. coli ATCC 25922, E. coli ATCC 10763, P. aeruginosa PAO1, P. aeruginosa ATCC 27853, A. baumannii ATCC 12457, A. baumannii ATCC 19606, K. pneumoniae ATCC 4352 and K. pneumoniae ATCC 33495). Stock solutions were prepared prior to use (25.6–0.25 mg/mL for robenidine analogues; 12.8–0.25 mg/mL for PMB). The interaction of two antibiotics was calculated as the fractional inhibitory concentration index (FICI) using the following formula:(1) FICI=MICA in combination/MICA alone+MICB in combination/MICB alone where A is NCL259 or NCL265 and B is PAβN or PMB. According to FICI calculations, the interaction between two compounds were interpreted as follows: synergistic (FICI ≤ 0.5); additive or partially synergistic (0.5 < FICI ≤ 1); indifferent (1 < FICI ≤ 4); and antagonistic (FICI > 4), as described previously. The dose reduction index (DRI) was used to describe the difference between the effective doses of NCL259 or NCL265 in combination with PMB or PAβN in comparison to their individual doses, using the following formula:(2) DRI=MICA alone/MICA in combination

K. pneumoniae 13GNB–429 [2] = assay: MIC, broth micro-dilution; format: cell-based; conditions: Klebsiella pneumoniae, read-out: MIC, Single Drug
Description: as §1, §2

K. pneumoniae 13GNB–550 [3] = assay: MIC, broth micro-dilution; format: cell-based; conditions: Klebsiella pneumoniae, read-out: MIC, Single Drug
Description: as §1, §2

K. pneumoniae 13GNB–429 [4] = assay: Checkerboard assay with PAβN; format: cell-based, Klebsiella pneumoniae; conditions: for concentration at the marked interaction: resazurin
Description: as §2
(§3) Evaluation of DRI is important clinically because it can allow the dose of a potentially toxic drug to be lowered in combination with another compound without reducing the drug’s efficacy. A DRI higher than 1 is viewed as beneficial.

K. pneumoniae 13GNB–550 [5] = assay: Checkerboard assay with PAβN; format: cell-based, Klebsiella pneumoniae; conditions: for concentration at the marked interaction: resazurin
Description: as §2, §3

K. oxytoca 13GNB–582 [6] = assay: Checkerboard assay with PAβN; format: cell-based; conditions: for concentration at the marked interaction: resazurin
Description: as §2, §3

E. coli ATCC 10763 [7] = assay: MIC, broth micro-dilution; format: cell-based, Escherichia coli; conditions: E. coli ATCC 10763
Description: (§4) A variety of Gram-negative reference strains (E. coli ATCC 25922, E. coli ATCC 10763, P. aeruginosa PAO1, P. aeruginosa ATCC 27853, A. baumannii ATCC 12457, A. baumannii ATCC 19606, K. pneumoniae ATCC 4352 and K. pneumoniae ATCC 33495) were used for initial screening and combination testing with PMB. The organisms were speciated using biochemical testing and MALDI-TOF mass spectrometry (Bruker, Preston, VIC, Australia). Activity testing of NCL259 and NCL265 was also carried out on 51 extraintestinal clinical E. coli isolates from companion animals, and 83 porcine and bovine enterotoxigenic E. coli (ETEC) isolates from the Australian Centre for Antimicrobial Resistance Ecology collection. E. coli wild-type (BW 25113) and its mutant BW 25113∆AcrB, in which the inner membrane component AcrB of the tripartite multidrug efflux system AcrA/AcrB/TolC has been deleted, were obtained from the bacterial collection held at Health and Biomedical Innovation, Clinical and Health Sciences, The University of South Australia. All isolates were cultured on sheep blood agar (SBA) plates at 37 °C for 18 h before being subcultured into Luria Bertaini (LB) (Oxoid, Scoresby, VIC, Australia) broth and grown to A600nm = 0.5 (equivalent to approx. 1.5 × 10^8 colony-forming units (CFU)/mL).
as §1

E. coli ATCC 25922 [8] = assay: MIC, broth micro-dilution; format: cell-based, Escherichia coli
Description: as §4, §1

P. aeruginosa ATCC 27853 [9] = assay: MIC, broth micro-dilution; format: cell-based, Pseudomonas aeruginosa
Description: as §4, §1

P. aeruginosa PAO1 [10] = assay: MIC, broth micro-dilution; format: cell-based, Pseudomonas aeruginosa
Description: as §4, §1

A. baumannii ATCC 12457 [11] = assay: MIC, broth micro-dilution; format: cell-based, Acinetobacter baumannii
Description: as §4, §1

A. baumannii ATCC 19606 [12] = assay: MIC, broth micro-dilution; format: cell-based, Acinetobacter baumannii
Description: as §4, §1

K. pneumoniae ATCC 33495 [13] = assay: MIC, broth micro-dilution; format: cell-based, Klebsiella pneumoniae; conditions: K. pneumoniae ATCC 33495
Description: as §4, §1

K. pneumoniae ATCC 4352 [14] = assay: MIC, broth micro-dilution; format: cell-based, Klebsiella pneumoniae
Description: as §4, §1

E. coli ATCC 10763 [15] = assay: Checkerboard assay with PMB; format: cell-based, Escherichia coli
Description: as §2, §3

E. coli ATCC 25922 [16] = assay: Checkerboard assay with PMB; format: cell-based, Escherichia coli
Description: as §2, §3

P. aeruginosa ATCC 27853 [17] = assay: Checkerboard assay with PMB; format: cell-based, Pseudomonas aeruginosa
Description: as §2, §3

P. aeruginosa PAO1 [18] = assay: Checkerboard assay with PMB; format: cell-based, Pseudomonas aeruginosa
Description: as §2, §3

A. baumannii ATCC 12457 [19] = assay: Checkerboard assay with PMB; format: cell-based, Acinetobacter baumannii
Description: as §2, §3

A. baumannii ATCC 19606 [20] = assay: Checkerboard assay with PMB; format: cell-based, Acinetobacter baumannii
Description: as §2, §3

K. pneumoniae ATCC 33495 [21] = assay: Checkerboard assay with PMB; format: cell-based, Klebsiella pneumoniae
Description: as §2, §3

K. pneumoniae ATCC 4352 [22] = assay: Checkerboard assay with PMB; format: cell-based, Klebsiella pneumoniae
Description: as §2, §3

NC(N)=NCCC[C@H](NC(=O)[C@@H](N)Cc1ccccc1)C(=O)Nc1ccc2ccccc2c1 [PAβN, phenylalanine-arginine-beta-naphthylamide, reference compound] (H-Phe-Arg-βNA)
MIC (K. oxytoca 13GNB–582 [1]): > 32 µg/mL
MIC (K. pneumoniae 13GNB–429 [2]): > 32 µg/mL
MIC (K. pneumoniae 13GNB–550 [3]): > 32 µg/mL
DRI PAβN:NCL259 (K. pneumoniae 13GNB–429 [4]; K. pneumoniae 13GNB–429): 4
DRI PAβN:NCL265 (K. pneumoniae 13GNB–429 [4]; K. pneumoniae 13GNB–429): 2
MIC, Combination (K. pneumoniae 13GNB–429 [4]; K. pneumoniae 13GNB–429, PAβN + NCL259): 16 µg/mL
MIC, Combination (K. pneumoniae 13GNB–429 [4]; K. pneumoniae 13GNB–429, PAβN + NCL265): 32 µg/mL
concentration at the marked interaction (K. pneumoniae 13GNB–429 [4]; Table S1, NCL259 + PAβN, replicate 1): 8 µg/mL
concentration at the marked interaction (K. pneumoniae 13GNB–429 [4]; Table S1, NCL259 + PAβN, replicate 2): 8 µg/mL
concentration at the marked interaction (K. pneumoniae 13GNB–429 [4]; Table S4, NCL265 + PAβN, replicate 1): 8 µg/mL
concentration at the marked interaction (K. pneumoniae 13GNB–429 [4]; Table S4, NCL265 + PAβN, replicate 2): 4 µg/mL
DRI PAβN:NCL259 (K. pneumoniae 13GNB–550 [5]; K. pneumoniae 13GNB–550): 2
DRI PAβN:NCL265 (K. pneumoniae 13GNB–550 [5]; K. pneumoniae 13GNB–550): 2
MIC, Combination (K. pneumoniae 13GNB–550 [5]; K. pneumoniae 13GNB–550, PAβN + NCL259): 32 µg/mL
MIC, Combination (K. pneumoniae 13GNB–550 [5]; K. pneumoniae 13GNB–550, PAβN + NCL265): 32 µg/mL
concentration at the marked interaction (K. pneumoniae 13GNB–550 [5]; Table S2, NCL259 + PAβN, replicate 1): 16 µg/mL
concentration at the marked interaction (K. pneumoniae 13GNB–550 [5]; Table S2, NCL259 + PAβN, replicate 2): 8 µg/mL
concentration at the marked interaction (K. pneumoniae 13GNB–550 [5]; Table S5, NCL265 + PAβN, replicate 1): 8 µg/mL
concentration at the marked interaction (K. pneumoniae 13GNB–550 [5]; Table S5, NCL265 + PAβN, replicate 2): 8 µg/mL
DRI PAβN:NCL259 (K. oxytoca 13GNB–582 [6]; K. oxytoca 13GNB–582): 4
DRI PAβN:NCL265 (K. oxytoca 13GNB–582 [6]; K. oxytoca 13GNB–582): 2
MIC, Combination (K. oxytoca 13GNB–582 [6]; K. oxytoca 13GNB–582, PAβN + NCL259): 16 µg/mL
MIC, Combination (K. oxytoca 13GNB–582 [6]; K. oxytoca 13GNB–582, PAβN + NCL265): 32 µg/mL
concentration at the marked interaction (K. oxytoca 13GNB–582 [6]; Table S3, NCL259 + PAβN, replicate 1): 8 µg/mL
concentration at the marked interaction (K. oxytoca 13GNB–582 [6]; Table S3, NCL259 + PAβN, replicate 2): 8 µg/mL
concentration at the marked interaction (K. oxytoca 13GNB–582 [6]; Table S6, NCL265 + PAβN, replicate 1): 8 µg/mL
concentration at the marked interaction (K. oxytoca 13GNB–582 [6]; Table S6, NCL265 + PAβN, replicate 2): 8 µg/mL

polymyxin B [PMB, reference compound]
MIC, Single Drug (E. coli ATCC 10763 [7]): 1 µg/mL
MIC, Single Drug (E. coli ATCC 25922 [8]): 0.5 µg/mL
MIC, Single Drug (P. aeruginosa ATCC 27853 [9]): 1 µg/mL
MIC, Single Drug (P. aeruginosa PAO1 [10]): 1 µg/mL
MIC, Single Drug (A. baumannii ATCC 12457 [11]): 1 µg/mL
MIC, Single Drug (A. baumannii ATCC 19606 [12]): 1 µg/mL
MIC, Single Drug (K. pneumoniae ATCC 33495 [13]): 1 µg/mL
MIC, Single Drug (K. pneumoniae ATCC 4352 [14]): 1 µg/mL
Dose Reduction Index (DRI) PMB:NCL259 (E. coli ATCC 10763 [15]; PMB + NCL259): 2
Dose Reduction Index (DRI) PMB:NCL265 (E. coli ATCC 10763 [15]; PMB + NCL265): 4
MIC, Combination (E. coli ATCC 25922 [16]; NCL259 or NCL265 with PMB): 0.25 µg/mL
Dose Reduction Index (DRI) PMB:NCL259 (E. coli ATCC 25922 [16]; PMB + NCL259): 2
Dose Reduction Index (DRI) PMB:NCL265 (E. coli ATCC 25922 [16]; PMB + NCL265): 2
MIC, Combination (P. aeruginosa ATCC 27853 [17]; NCL259 or NCL265 with PMB): 0.5 µg/mL
Dose Reduction Index (DRI) PMB:NCL259 (P. aeruginosa ATCC 27853 [17]; PMB + NCL259): 2
Dose Reduction Index (DRI) PMB:NCL265 (P. aeruginosa ATCC 27853 [17]; PMB + NCL265): 2
MIC, Combination (P. aeruginosa PAO1 [18]; NCL259 or NCL265 with PMB): 0.5 µg/mL
Dose Reduction Index (DRI) PMB:NCL259 (P. aeruginosa PAO1 [18]; PMB + NCL259): 2
Dose Reduction Index (DRI) PMB:NCL265 (P. aeruginosa PAO1 [18]; PMB + NCL265): 2
MIC, Combination (A. baumannii ATCC 12457 [19]; NCL259 or NCL265 with PMB): 0.5 µg/mL
Dose Reduction Index (DRI) PMB:NCL259 (A. baumannii ATCC 12457 [19]; PMB + NCL259): 2
Dose Reduction Index (DRI) PMB:NCL265 (A. baumannii ATCC 12457 [19]; PMB + NCL265): 2
MIC, Combination (A. baumannii ATCC 19606 [20]; NCL259 or NCL265 with PMB): 0.5 µg/mL
Dose Reduction Index (DRI) PMB:NCL259 (A. baumannii ATCC 19606 [20]; PMB + NCL259): 2
Dose Reduction Index (DRI) PMB:NCL265 (A. baumannii ATCC 19606 [20]; PMB + NCL265): 2
Dose Reduction Index (DRI) PMB:NCL259 (K. pneumoniae ATCC 33495 [21]; PMB + NCL259): 2
Dose Reduction Index (DRI) PMB:NCL265 (K. pneumoniae ATCC 33495 [21]; PMB + NCL265): 4
MIC, Combination (K. pneumoniae ATCC 4352 [22]; NCL259 or NCL265 with PMB): 0.25 µg/mL
Dose Reduction Index (DRI) PMB:NCL259 (K. pneumoniae ATCC 4352 [22]; PMB + NCL259): 4
Dose Reduction Index (DRI) PMB:NCL265 (K. pneumoniae ATCC 4352 [22]; PMB + NCL265): 4:4

Reference: paper PMC9598656, “In Vitro Activity of Robenidine Analogues NCL259 and NCL265 against Gram-Negative Pathogens” (Antibiotics, 2022)
